Key:
[1] = test system: CT26 cells; test: Annexin V FITC / Propidium Iodide apoptosis flow cytometry; assay type: cell-based, mouse; settings: CT26, 24 h treatment
Experimental: The capacity of the C1 complex to induce apoptotic death in cancer cells was assessed using flow cytometric analysis. This analysis involved treating cells with the C1 complex and subsequently staining them with Annexin V FITC and Propidium Iodide. […] In a similar vein, in a related context, NCI-H460 cancer cells, which are a line of human large-cell lung carcinoma cells, were subjected to treatment with binuclear platinum(II) complexes. These complexes feature 4′-substituted-2,2′:6′,2″-terpyridine ligands and were administered for a duration of 24 h. Following this treatment, there was a significant increase in the proportion of apoptotic cells, correlating strongly with exposure to these specific ligands.
The evaluation of apoptosis in cells subjected to treatment was conducted employing the Annexin V and Propidium Iodide double staining assay in accordance with the methodology outlined in prior studies. This approach enabled the determination of the percentage of apoptotic cells. In further experiments, cells were fixed and permeabilized using a permeabilization buffer provided by BD Bioscience, Heidelberg, Germany. […] The analysis of these treated cells was carried out using a FACS Calibur flow cytometer (BD Biosciences, San Jose, CA, USA) and the resulting data were meticulously analyzed with FlowJo software (v10.8.2). […]

[2] = test system: mouse mesenchymal stem cells (mMSC); test: MTT cytotoxicity assay, mMSC; assay type: cell-based; settings: 48 h
Experimental: (§1) The in vitro cytotoxicity of newly synthesized mono- and heteronuclear platinum(II)/and zinc(II) complexes, featuring a 4,4′,4″-tri-tert-butyl-2,2′:6′,2″-terpyridine ligand (designated as C1–C5), was assessed using MTT assay procedures. This evaluation targeted various cell lines: mouse colorectal carcinoma (CT26), human colorectal carcinoma (HCT116 and SW480), and non-cancerous mouse mesenchymal stem cells (mMSC). These cell lines were exposed to synthesized complexes for 48 h, with concentrations ranging from 1.17 to 150 μM.
In the context of developing low-toxicity drugs, it is imperative to evaluate the antiproliferative activity against normal cells. The in vitro toxicity of the tested complexes toward normal mouse mesenchymal stem cells (mMSC) was examined. […] These findings indicate the possibility of enhanced in vivo tolerance for this complex.
(§2) In our study, various cell lines were cultured, including mouse colorectal carcinoma (CT26), human colorectal carcinoma (HCT116 and SW480) obtained from ATCC, USA, and mouse mesenchymal stem cells (mMSC, Gibco), New York, NY, USA). These cell lines were consistently maintained in complete Dulbecco’s Modified Eagle Medium (DMEM) supplemented with 10% fetal bovine serum (FBS) (Sigma Aldrich, St. Louis, MO, USA), 100 IU/mL penicillin, and 100 μg/mL streptomycin antibiotics (Invitrogen, Carlsbad, CA, USA). The cultures were incubated at 37 °C in a humidified atmosphere of 5% carbon dioxide (CO2). […] The viability and count of the cells were determined using Trypan blue staining, ensuring the accuracy and reliability of the experimental outcomes.
(§3) The cytotoxic effects of five newly synthesized complexes, alongside cisplatin, were assessed through the MTT assay method, in line with previously established protocols. During the exponential growth phase, cells were collected from culture flasks, counted, and then seeded in 96-well culture plates at a density of 5·10^3 cells per well. Subsequent treatment involved exposing these cells to varying concentrations of the newly synthesized complexes and cisplatin (ranging from 1.17 to 150 μM) for a duration of 48 h, with fresh complete medium serving as the control. The results were quantified relative to the control (untreated cells), providing a comparative measure of cytotoxicity. Additionally, IC50 values, representing the concentration required to inhibit 50% of the cell viability, were calculated using Microsoft Office Excel 2010. Lastly, the data were presented as percentages of viable cells in accordance with the methodology outlined in the referenced study, facilitating a comprehensive understanding of the anticancer potential of these compounds.

[3] = test system: human colorectal carcinoma (HCT116); test: MTT cytotoxicity assay, HCT116; assay type: cell-based; settings: 48 h
Experimental: as §1, §2, §3

[4] = test system: CT-DNA; test: Ethidium bromide/CT-DNA fluorescence quenching (EB displacement); assay type: binding; settings: EB/CT-DNA 1:1, 5 µM, PBS pH 7.4, room temperature, λex 527 nm, λem 612 nm
Excerpt: Fluorescent spectroscopy allows the determination of the intercalation potential of compounds. Intercalation involves planar aromatic molecules binding between the base pairs of DNA chains, causing them to elongate. Ethidium bromide (EB) is commonly used as a DNA intercalator and produces high levels of fluorescent emissions at 612 nm when intercalating between DNA strands. However, the addition of compounds that can intercalate between DNA strands and suppress the effects of EB will reduce fluorescent emissions. If a complex is able to replace EB, fluorescence reduction will occur, indicating the complex’s ability to bind intercalatively. Figure 3 and Figures S10–S13 show the results of fluorescence titrations in the presence of intercalator EB, where the emission intensity of a constant CT-DNA/EB solution concentration of 5 µM was monitored with increasing complex concentration up to a ratio of 5.
To determine whether the complex could displace EB from the CT-DNA-EB complex, the interactions of the complex with CT-DNA were examined in the presence of EB. The CT-DNA-EB solution was formed by combining EB and CT-DNA solutions with a concentration of 5 μM at a pH of 7.4. The impact of the complex binding to the CT-DNA was measured by analyzing the fluorescence emission spectrum after the addition of the examined complexes solution in increasing concentration, Figure 3.
The binding affinity of the complexes C1–C5 to CT-DNA via intercalation was determined using fluorescence spectroscopy. All measurements were conducted at room temperature in 0.01 M PBS with a pH of 7.4. Fluorescence measurements were performed by adding increasing complex concentrations (0–50 μM) to a CT-DNA and EB solution. Before each measurement, the system was shaken at room temperature. The fluorescence intensity was measured with the wavelength of excitation at 527 nm and the wavelength of emission at 612 nm. The width of the excitation and emission slits (10 nm) and scan rate were maintained at a constant rate. The emission of the solution was recorded in the range of 550 to 750 nm. The Stern–Volmer constants, Ksv, were determined by Equation (2). I0/I = 1 + Ksv[Q](2) [Q] is the concentration of the complex, I0 and I represent emission intensities in the absence and presence of complex, and Ksv is the Stern–Volmer constant obtained from the slope of the plot of I0/I vs. [Q] [25, 26, 27, 28].

[ZnCl2(terpy^t^Bu)] [C1] was tested, and the “Induction of apoptotic cell death” value ([1]; Annexin V FITC/PI) was “entered both early and late stages of apoptosis”, the “Quadrant number upper left of PI / Annexin V plot (necrotic, AnnV−PI+)” value ([1]; representative FACS plot, untreated 1.55) was “underwent necrosis” and the “Cytotoxic effect on mMSC compared to cancer cells (HCT116, SW480, CT26)” value ([2]; concentrations 1.17 to 18.75 μM) was “lower cytotoxic effect”. For the same substance, the IC50 ([2]; non-cancerous cells, read-out: IC50 ± SEM, mMSCs) was 56.7 ± 6.93 µM, the “Selectivity Index (IC50 mMSC/IC50), HCT 116” value [3] was 0.6 and the IC50 ([3]; read-out: IC50 ± SEM, HCT 116) was 88.2 ± 48.5 µM. For the same substance, the “Stern–Volmer constant Ksv, CT-DNA” value [4] was 2.2 ± 0.1 10^4 M^–1.

— article PMC10931776, “Modes of Interactions with DNA/HSA Biomolecules and Comparative Cytotoxic Studies of Newly Synthesized Mononuclear Zinc(II) and Heteronuclear Platinum(II)/Zinc(II) Complexes toward Colorectal Cancer Cells” (International Journal of Molecular Sciences, 2024)
